logP and logD data for 38 compounds are collected here from the SangsterLogP compilation.

The structures appear in SMILES notation.

A short description of the first series: method code SF, from Craig, N. (1990). Drug Compendium. In Hansch, C (Ed.), Comprehensive Medicinal Chemistry. Pergamon Press.
Conditions: not given
The term logP denotes a log measure of how a compound divides between an organic and an aqueous phase. The low end stands for a more hydrophilic compound, the high end for a more lipophilic compound. `CCN(CC)CCNc1ccc(CO)c2sc3ccccc3c(=O)c12`: the log partition coefficient (logP) is 2.7.
On the same count and under the same terms, the same measure for `CC(=O)O[C@H]1C[C@H](O[C@H]2[C@@H](O)C[C@H](O[C@H]3[C@@H](O)C[C@H](O[C@H]4CC[C@@]5(C)[C@H](CC[C@@H]6[C@@H]5CC[C@]5(C)[C@@H](C7=CC(=O)OC7)CC[C@]65O)C4)O[C@@H]3C)O[C@@H]2C)O[C@H](C)[C@H]1O`: 1.97.
The same measure, in the same setting: the same measure for `Nc1ccc(S(=O)(=O)c2ccc(N)cc2)cc1`: 1.03; for `CCC(=O)O[C@]1(c2ccccc2)CCN(C)C[C@H]1CC`: 3.61; for `N=C(N)N1CCc2ccccc2C1`: 0.75.
In the case of `COc1cc(S(C)=O)ccc1-c1nc2ncccc2[nH]1` (stereo not drawn), the logP stood at 1.17.
For the compound `CN1CC[C@@]23CCCC[C@@H]2[C@@H]1Cc1ccc(O)cc13`, the lipophilicity (logP) was 3.11.
On the same count and under the same terms, the same measure for `Cc1ccccc1-n1c(C)nc2ccccc2c1=O`: 2.5; for `CN(C)CCC1CN(C)C(=S)c2cnccc2O1` (stereo not drawn): 1.08; for `COc1cc(NS(=O)(=O)c2ccc(N)cc2)ncn1`: 0.7.
Still for that read-out and setting: the same measure for `CCC(O)C(CC(C)N(C)C)(c1ccccc1)c1ccccc1` (stereo not drawn): 4.27; for `OC[C@@H](O)[C@H]1O[C@@H]2O[C@H](C(Cl)(Cl)Cl)O[C@@H]2[C@H]1O`: 1.02; for `OCCN1CCN([C@@H]2C[C@@H](c3ccc(F)cc3)c3ccc(C(F)(F)F)cc32)CC1`: 4.39.
On the same count and under the same terms, the same measure for `CC(C)S(=O)(=O)n1c(N)nc2ccc(/C(=N\O)c3ccccc3)cc21`: 3.1; for `C[C@@H]1C[C@H]2[C@@H]3C[C@H](F)C4=CC(=O)C=C[C@]4(C)[C@@]3(F)[C@@H](O)C[C@]2(C)[C@H]1C(=O)COC(=O)C(C)(C)C`: 3.86; for `CCC1(CC)C(=O)NCC(C)C1=O` (stereo not drawn): 0.78.
Take `C[C@]12CCC(=O)C=C1CC[C@@H]1[C@@H]2CC[C@@]2(C)[C@H]1CC[C@]2(O)C(=O)CO`: the log partition coefficient (logP) is 2.52.
Still for that read-out and setting: the same measure for `CC(=O)[C@H]1CC[C@H]2[C@@H]3C[C@H](C)C4=CC(=O)CC[C@]4(C)[C@H]3C(=O)C[C@]12C`: 2.75.
The same measure, in the same setting: for `COc1cc2c(cc1OC)C(CCCCC1NCCc3cc(OC)c(OC)cc31)NCC2` (stereo not drawn) the value was 3.35; for `CC(C)/N=C(N)/N=C(\N)Nc1ccc(Cl)cc1`, 2.53.
Take `O=[N+]([O-])c1cnc(-c2ccc(F)cc2)n1CCO`: the logP worked out at 1.33.
On the same count and under the same terms, the same measure for `CCc1ncc([N+](=O)[O-])n1CCNC(=S)OC`: 1.46.
The same measure, in the same setting: for `NC(=O)CCC/N=C(\c1ccc(Cl)cc1)c1cc(F)ccc1O` the value was 2.97; for `Nc1ncn([C@@H]2O[C@H](CO)[C@@H](O)[C@@H]2O)c(=O)n1`, -2.17.
`CCC(OC(C)=O)C(CC(C)N(C)C)(c1ccccc1)c1ccccc1` (stereo not drawn): the log partition coefficient (logP) was 4.27.
The same measure, in the same setting: the same measure for `C=CCC1(C(C)CC)C(=O)NC(=O)NC1=O` (stereo not drawn): 1.47.
Same read-out and setting: the same measure for `CSc1ccc(OCc2ncc([N+](=O)[O-])n2C)cc1`: 2.5; for `Cc1ncc([N+](=O)[O-])n1CCc1ccncc1`: 0.06; for `Cc1ncc([N+](=O)[O-])n1CCOC(N)=O`: -0.29.
On the same count and under the same terms, for `NCc1ccccc1Sc1ccccc1CO` the value was 2.39.
In turn, `NC(=O)c1csc([C@@H]2O[C@H](CO)[C@@H](O)[C@H]2O)n1` returned a logP of -1.73.
On the same count and under the same terms, for `CN(C)CCN1C(=O)c2ccccc2Nc2cc(Cl)ccc21` the value was 3.73; for `CCNC1C2CCC(C2)C1c1ccccc1` (stereo not drawn), 3.2.
On the same count and under the same terms, the same measure for `CCN[C@@H](C)Cc1cccc(C(F)(F)F)c1`: 3.36; for `N#Cc1ccccc1OCC(O)CNCCNC(=O)Cc1ccc(O)cc1` (stereo not drawn): 0.92.

The same series, now with this note: pH 4.9.
What is called logD is the decadic logarithm of the distribution of all forms, ionised or not, between an organic phase and buffer at a given pH. Read a low logD as lower lipophilicity. Regarding `CCOC(=O)[C@H](CCc1ccccc1)N[C@H]1CCCN2CCC[C@@H](C(=O)O)N2C1=O`, the pH-dependent lipophilicity (logD) amounted to 0.55.
Same read-out and setting: for `CCOC(=O)[C@H](CCc1ccccc1)N[C@@H](C)C(=O)N1CCC[C@H]1C(=O)O` the value was -0.07.

The same series, now with this note: pH 7.4.
In the case of `CCOC(=O)C=C1SC(N2CCCCC2)C(=O)N1C` (stereo not drawn), the logD came out at 2.3.
